The target in one test is T1, PI3Kdelta (Homo sapiens, UniProt O00329).
T1 construct: purchased Upstate; Millipore 14-604
Kind of test: HTRF PI3K biochemical assay, delta isoform. To be noted: 0.3 nM enzyme, 100 uM ATP, 5 uM PIP2, form screened (Neutral or TFA salt) given per compound. From the text:
(§1) HTRF PI3K Biochemical Assay to Measure Intrinsic Potency of Compound Inhibitors
(§2) The PI3-Kinase biochemical assays were developed to measure the intrinsic potency and compound dependent inhibition of the alpha, beta, delta, and gamma PI3K isoform enzymes. This assay was developed and further optimized from a kit produced by Upstate (Millipore catalog #33-047) and has been configured for HTS and SAR screening. Briefly, this procedure exploits the exquisite specificity and high affinity binding of […] phosphatidyl(3,4,5)triphosphate (PIP3) to the GRP1 pleckstrin homology (PH) domain to generate the signal. In the absence of PIP3, an HTRF (Homogeneous Time-Resolved Fluorescence energy transfer) complex is formed consisting of europium (Eu)-labeled anti-GST, GSTtagged GRP1-PH domain, biotin-PIP3 and streptavidin conjugated APC. The native PIP3 produced by PI3-Kinase activity disrupts in a competitive manner the biotin-PIP3 from the PH domain, resulting in the loss of energy transfer (HTRF complex) and a decrease in the signal. The format of this assay is the same for all 4 isoforms of PI3K; the differences lie in the concentration of enzyme used to achieve robust assay window. The alpha, beta, and delta assays are run at 0.5, 1, and 0.3 nM enzymes and the gamma assay is run at 5 nM enzyme. The ATP concentration is 100 uM in the alpha, beta, and delta assays and 50 uM ATP in the gamma assay. All reactions are run at 5 uM PIP2.
(§3) Compounds are serially diluted (3-fold in 100% DMSO) across a 384-well polypropylene source plated from column 3 to column 12 and column 13 to column 22, to yield 10 concentration dose response for each test compound. Columns 1, 2, 23 and 24 contain either only DMSO or pharmacological known control inhibitor. Once titrations are made, 2.5 nL of the compounds on 384 well plates are reformatted and transferred by acoustic dispense in quadruplicates to a 1536 assay plate (Greiner) to assay across all four PI3K isoform enzymes.
(§4) The PI3-Kinase biochemical assay was optimized using the HTRF kit provided by Upstate (Millipore). The assay kit contains six reagents: 1) 4× Reaction Buffer; 2) native PIP2 (substrate); 3) Stop (EDTA); 4) Detection Mix A (Streptavidin-APC); 5) Detection Mix B (Eu-labeled Anti-GST plus GST-tagged PH-domain); 6) Detection Mix C. In addition, the following items were obtained or purchased; PI3Kinase (alpha 14-602, beta 14-603, gamma 14-558 and delta 14-604 from Upstate; Millipore), dithiothreitol (Sigma, D-5545), Adenosine-5′ triphosphate (InVitrogen, Cat#AS001A), native PIP3 (PI(3,4,5)P3, diC8, H^+, CELLSIGNALS, INC. Cat #907) DMSO (Sigma, 472301).
(§5) PI3Kinase Reaction Buffer is prepared by dilution the stock 1:4 with de-ionized water. DTT, PIP2 and Biotin-PIP3 were added to 1536 assay plate at a final concentration of 5 mM, […] 25 nM on the day of use. Enzyme addition and compound pre-incubation are initiated by the addition of 1.25 ul of PI3K (at twice its final concentration) in the 1× reaction buffer to all wells using a BioRaptor. Plates are incubated at room temperature for 15 minutes. Reactions are initiated by addition of 1.25 ul of 2× substrate solution (PIP2 and ATP in 1× reaction buffer) using BioRaptor. Plates are incubated in humidified chamber at room temperature for one hour. Reactions are quenched by addition of 0.625 uL of stop solution to all wells using the BioRaptor. The quenched reactions are then processed to detect product formation by adding 0.625 uL of Detection Solution to all wells using the BioRaptor (Detection mix C, Detection Mix A, and Detection Mix B combined together in an 18:1:1 ratio prepared 2 hours prior to use). Following a one hour incubation in the dark, the HTRF signal is measured on the Envision plate reader set for 330 nm excitation and dual emission detection at […]. […]

The next test addresses T2, PI3Kalpha (Homo sapiens, UniProt P42336).
T2 construct: purchased Upstate; Millipore 14-602
Kind of test: HTRF PI3K biochemical assay, alpha isoform (selectivity versus delta). As to conditions: relative ratio PI3K-alpha IC50 value / PI3K-delta IC50 value.
Description: as §1, §2, §3, §4, §5

Where only a bound is given, the exact number is not on record here.

T2 sequence (P42336 whole entry): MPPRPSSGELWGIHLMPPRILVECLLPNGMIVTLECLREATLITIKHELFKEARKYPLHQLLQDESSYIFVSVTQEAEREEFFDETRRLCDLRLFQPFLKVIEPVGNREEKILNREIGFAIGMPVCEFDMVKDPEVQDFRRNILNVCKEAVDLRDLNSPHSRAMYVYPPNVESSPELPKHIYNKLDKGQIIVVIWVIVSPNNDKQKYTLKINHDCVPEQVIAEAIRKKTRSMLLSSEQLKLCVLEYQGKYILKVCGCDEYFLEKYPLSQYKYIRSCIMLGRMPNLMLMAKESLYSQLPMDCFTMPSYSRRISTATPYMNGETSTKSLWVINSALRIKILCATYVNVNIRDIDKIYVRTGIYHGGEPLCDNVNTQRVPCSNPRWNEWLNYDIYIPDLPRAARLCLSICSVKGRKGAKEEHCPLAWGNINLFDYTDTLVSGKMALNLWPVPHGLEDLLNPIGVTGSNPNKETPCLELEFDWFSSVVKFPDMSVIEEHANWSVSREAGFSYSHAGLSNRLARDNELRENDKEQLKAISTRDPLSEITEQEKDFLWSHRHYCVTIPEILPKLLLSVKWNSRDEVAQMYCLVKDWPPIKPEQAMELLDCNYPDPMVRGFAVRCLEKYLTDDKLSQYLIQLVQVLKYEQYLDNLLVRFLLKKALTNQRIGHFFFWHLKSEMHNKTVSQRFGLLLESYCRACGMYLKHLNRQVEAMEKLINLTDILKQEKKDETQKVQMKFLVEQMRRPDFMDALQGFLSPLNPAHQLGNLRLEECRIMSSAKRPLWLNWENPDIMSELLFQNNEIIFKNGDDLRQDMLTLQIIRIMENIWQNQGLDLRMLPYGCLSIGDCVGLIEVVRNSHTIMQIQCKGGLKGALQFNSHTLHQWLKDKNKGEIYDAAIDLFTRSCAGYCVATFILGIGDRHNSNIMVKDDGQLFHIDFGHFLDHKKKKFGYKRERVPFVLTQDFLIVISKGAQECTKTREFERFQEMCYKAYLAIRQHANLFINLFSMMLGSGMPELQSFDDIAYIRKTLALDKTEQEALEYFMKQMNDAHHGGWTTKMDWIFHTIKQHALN
T2 sequence (P27986 whole entry partner): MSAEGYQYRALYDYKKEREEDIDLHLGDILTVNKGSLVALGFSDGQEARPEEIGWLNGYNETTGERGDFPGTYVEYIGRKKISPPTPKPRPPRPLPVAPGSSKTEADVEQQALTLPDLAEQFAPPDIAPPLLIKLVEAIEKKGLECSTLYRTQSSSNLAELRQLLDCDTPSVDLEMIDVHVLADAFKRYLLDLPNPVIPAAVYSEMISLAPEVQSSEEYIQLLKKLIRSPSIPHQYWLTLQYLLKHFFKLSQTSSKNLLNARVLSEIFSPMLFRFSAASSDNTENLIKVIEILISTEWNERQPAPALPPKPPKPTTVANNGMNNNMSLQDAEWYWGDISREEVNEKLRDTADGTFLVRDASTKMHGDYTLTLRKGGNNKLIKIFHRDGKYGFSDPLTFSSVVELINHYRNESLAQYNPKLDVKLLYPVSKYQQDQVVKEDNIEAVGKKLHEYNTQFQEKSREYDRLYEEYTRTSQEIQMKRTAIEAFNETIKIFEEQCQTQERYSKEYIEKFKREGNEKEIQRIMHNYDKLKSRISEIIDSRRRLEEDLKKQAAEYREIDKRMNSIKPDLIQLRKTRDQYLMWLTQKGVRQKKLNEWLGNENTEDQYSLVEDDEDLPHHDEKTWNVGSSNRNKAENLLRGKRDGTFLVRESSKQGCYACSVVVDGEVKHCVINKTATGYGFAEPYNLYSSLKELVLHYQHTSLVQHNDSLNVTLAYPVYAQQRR
T1 sequence (O00329 whole entry): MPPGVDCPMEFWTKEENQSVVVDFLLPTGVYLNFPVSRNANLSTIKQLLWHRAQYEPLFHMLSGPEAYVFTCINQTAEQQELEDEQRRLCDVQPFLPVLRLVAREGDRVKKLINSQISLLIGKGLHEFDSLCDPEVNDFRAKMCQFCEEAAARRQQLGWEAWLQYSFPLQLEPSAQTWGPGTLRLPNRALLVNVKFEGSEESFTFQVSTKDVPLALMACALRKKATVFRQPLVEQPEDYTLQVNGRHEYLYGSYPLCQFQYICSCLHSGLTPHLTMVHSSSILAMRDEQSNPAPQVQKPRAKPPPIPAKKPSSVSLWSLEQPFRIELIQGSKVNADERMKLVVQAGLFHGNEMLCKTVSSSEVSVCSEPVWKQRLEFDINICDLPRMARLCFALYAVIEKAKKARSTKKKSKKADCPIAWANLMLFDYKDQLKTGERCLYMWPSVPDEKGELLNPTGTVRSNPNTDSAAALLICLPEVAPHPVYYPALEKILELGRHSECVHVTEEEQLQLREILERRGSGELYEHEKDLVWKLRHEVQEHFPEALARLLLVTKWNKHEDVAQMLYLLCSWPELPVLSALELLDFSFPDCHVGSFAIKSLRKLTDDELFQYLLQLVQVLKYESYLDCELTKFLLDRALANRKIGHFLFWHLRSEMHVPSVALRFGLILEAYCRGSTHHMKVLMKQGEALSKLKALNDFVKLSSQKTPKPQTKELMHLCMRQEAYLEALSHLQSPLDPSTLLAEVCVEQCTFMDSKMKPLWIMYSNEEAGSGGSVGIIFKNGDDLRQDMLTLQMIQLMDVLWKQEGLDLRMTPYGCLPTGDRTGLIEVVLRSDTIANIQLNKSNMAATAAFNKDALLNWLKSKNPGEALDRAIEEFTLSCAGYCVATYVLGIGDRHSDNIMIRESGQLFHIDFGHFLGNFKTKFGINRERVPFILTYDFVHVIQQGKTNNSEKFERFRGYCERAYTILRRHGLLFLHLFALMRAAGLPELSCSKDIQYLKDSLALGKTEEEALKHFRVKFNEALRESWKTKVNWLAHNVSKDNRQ
T1 sequence (P27986 whole entry partner): as the sequence (P27986 whole entry partner) above

Regarding `CCn1c(-c2cnn(-c3ccccc3)c2)nc2c(NC3CCc4nnc(C5CC5)n4C3)ncnc21` (racemic) [Compound 1-10, (S and R)-N-(3-cyclopropyl-5,6,7,8-tetrahydro[1,2,4]triazolo[4,3-a]pyridin-6-yl)-9-ethyl-8-(1-phenyl-1H-pyrazol-4-yl)-9H-purin-6-amine], the IC50 on PI3Kdelta is < 1 nM. In addition, the “Selectivity versus PI3Kalpha” value on PI3Kalpha is reported as >10.

Turning to `CCn1c(-c2ccc(C(F)(F)F)nc2)nc2c(NC3CCc4nnc(C5CC5)n4C3)ncnc21` (racemic) [Compound 1-11, (S and R)-N-(3-cyclopropyl-5,6,7,8-tetrahydro[1,2,4]triazolo[4,3-a]pyridin-6-yl)-9-ethyl-8-[6-(trifluoromethyl)pyridin-3-yl]-9H-purin-6-amine], the concentration for half-maximal inhibition (IC50) on PI3Kdelta was found to be 4.1 nM. In addition, the “Selectivity versus PI3Kalpha” value on PI3Kalpha was >10.

As to `CCn1c(-c2ccc(OC)nc2)nc2c(NC3CCc4nnc(C5CC5)n4C3)ncnc21` (racemic) [Compound 1-12, (S and R)-N-(3-cyclopropyl-5,6,7,8-tetrahydro[1,2,4]triazolo[4,3-a]pyridin-6-yl)-9-ethyl-8-(6-methoxypyridin-3-yl)-9H-purin-6-amine], the IC50 at PI3Kdelta was 1.2 nM. The “Selectivity versus PI3Kalpha” value on PI3Kalpha is >10.

As for `CCn1c(-c2cnc(OC)c(F)c2)nc2c(NC3CCc4nnc(C5CC5)n4C3)ncnc21` (racemic) [Compound 1-13, (S and R)-N-(3-cyclopropyl-5,6,7,8-tetrahydro[1,2,4]triazolo[4,3-a]pyridin-6-yl)-9-ethyl-8-(5-fluoro-6-methoxypyridin-3-yl)-9H-purin-6-amine], the half-inhibitory concentration (IC50) on PI3Kdelta is 1.1 nM. For the same compound, the “Selectivity versus PI3Kalpha” value at PI3Kalpha is >10.

Turning to `CCn1c(-c2ccc(OC(F)F)nc2)nc2c(NC3CCc4nnc(C5CC5)n4C3)ncnc21` (racemic) [Compound 1-14, (S and R)-N-(3-cyclopropyl-5,6,7,8-tetrahydro[1,2,4]triazolo[4,3-a]pyridin-6-yl)-8-[6-(difluoromethoxy)pyridin-3-yl]-9-ethyl-9H-purin-6-amine], the IC50 at PI3Kdelta came to 2.1 nM. Besides, the “Selectivity versus PI3Kalpha” value at PI3Kalpha is reported as >10.

Consider `CCn1c(-c2cnc(OC)c(C)c2)nc2c(NC3CCc4nnc(C5CC5)n4C3)ncnc21` (racemic) [Compound 1-15, (S and R)-N-(3-cyclopropyl-5,6,7,8-tetrahydro[1,2,4]triazolo[4,3-a]pyridin-6-yl)-9-ethyl-8-(6-methoxy-5-methylpyridin-3-yl)-9H-purin-6-amine], for which the IC50 on PI3Kdelta was < 1 nM. In addition, the “Selectivity versus PI3Kalpha” value at PI3Kalpha is given as >10.

Turning to `CCn1c(-c2ccc(OC(F)(F)F)cc2)nc2c(NC3CCc4nnc(C5CC5)n4C3)ncnc21` (racemic) [Compound 1-16, (S and R)-N-(3-cyclopropyl-5,6,7,8-tetrahydro[1,2,4]triazolo[4,3-a]pyridin-6-yl)-9-ethyl-8-[4-(trifluoromethoxy)phenyl]-9H-purin-6-amine], the 50% inhibitory concentration (IC50) on PI3Kdelta was found to be 3.9 nM. Also, the “Selectivity versus PI3Kalpha” value on PI3Kalpha is >10.

On to `CCn1ncc(-c2nc3c(NC4CCc5nnc(C6CC6)n5C4)ncnc3n2CC)c1C` (racemic) [Compound 1-17, (S and R)-N-(3-cyclopropyl-5,6,7,8-tetrahydro[1,2,4]triazolo[4,3-a]pyridin-6-yl)-9-ethyl-8-(1-ethyl-5-methyl-1H-pyrazol-4-yl)-9H-purin-6-amine], for which the IC50 on PI3Kdelta was < 1 nM. Also, the “Selectivity versus PI3Kalpha” value on PI3Kalpha was >10.

In the case of `CCn1c(C(=O)NCC(F)(F)F)nc2c(NC3CCc4nnc(C(C)C)n4C3)ncnc21` (racemic) [Compound 1-37, (S and R)-9-ethyl-6-{[3-(1-methylethyl)-5,6,7,8-tetrahydro[1,2,4]triazolo[4,3-a]pyridin-6-yl]amino}-N-(2,2,2-trifluoroethyl)-9H-purine-8-carboxamide], on PI3Kdelta, the concentration for half-maximal inhibition (IC50) amounted to 12 nM. At PI3Kalpha, the “Selectivity versus PI3Kalpha” value is >10.

Regarding `CCn1c(-c2cnc(C)nc2)nc2c(NC3CCc4c(c(C5CC5)nn4C(=O)OC(C)(C)C)C3)ncnc21` (racemic) [Compound 2-1, (S and R)-tert-butyl 3-cyclopropyl-5-{[9-ethyl-8-(2-methylpyrimidin-5-yl)-9H-purin-6-yl]amino}-4,5,6,7-tetrahydro-1H-indazole-1-carboxylate], the IC50 on PI3Kdelta is < 1 nM. In addition, at PI3Kalpha, the “Selectivity versus PI3Kalpha” value is listed as >10.

As to `CCn1c(-c2cnc(C)nc2)nc2c(NC3CCc4c(c(C(C)C)nn4CCN(C)C)C3)ncnc21` (racemic) [Compound 2-3, (S and R)-N-{1-[2-(dimethylamino)ethyl]-3-(1-methylehyl)-4,5,6,7-tetrahydro-1H-indazol-5-yl}-9-ethyl-8-(2-methylpyrimidin-5-yl)-9H-purin-6-amine], the 50% inhibitory concentration (IC50) on PI3Kdelta was 7.4 nM. The “Selectivity versus PI3Kalpha” value at PI3Kalpha was >10.

Consider `CCn1c(C(F)F)nc2c(NC3CCc4[nH]nc(C(C)C)c4C3)ncnc21` (racemic) [Compound 2-9, (S and R)-8-(difluoromethyl)-9-ethyl-N-[3-(1-methylethyl)-4,5,6,7-tetrahydro-1H-indazol-5-yl]-9H-purin-6-amine], for which the half-inhibitory concentration (IC50) on PI3Kdelta was 60 nM. On PI3Kalpha, the “Selectivity versus PI3Kalpha” value is >10.

Take `CCn1c(-c2cnc(C)nc2)nc2c(NC3CCc4c(c(C(C)C)nn4C(C)=O)C3)ncnc21` (racemic) [Compound 2-12, (S and R)-N-[1-acetyl-3-(1-methylethyl)-4,5,6,7-tetrahydro-1H-indazol-5-yl]-9-ethyl-8-(2-methylpyrimidin-5-yl)-9H-purin-6-amine]: at PI3Kdelta, the half-maximal inhibitory concentration (IC50) stood at 15 nM. Further, at PI3Kalpha, the “Selectivity versus PI3Kalpha” value was >10.

For the compound `CCn1c(-c2cnc(C)nc2)nc2c(NC3CCc4c(c(C(C)C)nn4C(=O)c4ccccc4)C3)ncnc21` (racemic) [Compound 2-13, (S and R)-9-ethyl-N-[3-(1-methylethyl)-1-(phenylcarbonyl)-4,5,6,7-tetrahydro-1H-indazol-5-yl]-8-(2-methylpyrimidin-5-yl)-9H-purin-6-amine], the IC50 on PI3Kdelta was 30 nM. The “Selectivity versus PI3Kalpha” value at PI3Kalpha is on record as >10.

For `CCn1c(-c2cnc(C)nc2)nc2c(NC3CCc4c(c(C(C)C)nn4C(=O)CN(C)C)C3)ncnc21` (racemic) [Compound 2-14, (S and R)-N-{1-[(dimethylamino)acetyl]-3-(1-methylethyl)-4,5,6,7-tetrahydro-1H-indazol-5-yl}-9-ethyl-8-(2-methylpyrimidin-5-yl)-9H-purin-6-amine], the IC50 on PI3Kdelta was 20 nM. Moreover, on PI3Kalpha, the “Selectivity versus PI3Kalpha” value is >10.

As to `CCn1c(-c2cnc(C)nc2)nc2c(NC3CCc4c(c(C(C)C)nn4C(=O)CC(C)(C)C)C3)ncnc21` (racemic) [Compound 2-15, (S and R)-N-[1-(3,3-dimethylbutanoyl)-3-(1-methylethyl)-4,5,6,7-tetrahydro-1H-indazol-5-yl]-9-ethyl-8-(2-methylpyrimidin-5-yl)-9H-purin-6-amine], the half-maximal inhibitory concentration (IC50) on PI3Kdelta was determined as 78 nM. Besides, the “Selectivity versus PI3Kalpha” value on PI3Kalpha is reported as >10.

Take `CCn1c(-c2cnc(C)nc2)nc2c(NC3CCc4c(c(C(C)C)nn4C(=O)OC(C)(C)C)C3)ncnc21` (racemic) [Compound 2-16, (S and R)-tert-butyl 5-{[9-ethyl-8-(2-methylpyrirnidin-5-yl)-9H-purin-6-yl]amino}-3-(1-methylethyl)-4,5,6,7-tetrahydro-1H-indazole-1-carboxylate]: the 50% inhibitory concentration (IC50) at PI3Kdelta was < 1 nM. Also, the “Selectivity versus PI3Kalpha” value at PI3Kalpha was >10.

The values are drawn from patent publication US10100064B2, “Purine inhibitors of human phosphatidylinositol 3-kinase delta” (Merck Sharp & Dohme Corp., priority 2014, dated 2018).
